Data taken from patent US20220088016A1, “CANCER TREATMENT USING MULTI-TARGETED KINASE INHIBITOR IN COMBINATION OF PROTEIN KINASE BIOMARKERS” (ZHEJIANG CROWNMAB BIOTECH CO. LTD., priority 2019, published 2022).

How the values were obtained:
Test in all cases: Kinase profiling
Type in all cases: binding
Settings in all cases: read-out: % Ctrl @ 1000 nM
[1] = target: ASK2 (Homo sapiens, UniProt O95382)
[2] = target: CAMK2D (Homo sapiens, UniProt Q13557)
[3] = target: CAMK2G (Homo sapiens, UniProt Q13555)
[4] = target: CDK3 (Homo sapiens, UniProt Q00526)
[5] = target: CSNK1G1 (Homo sapiens, UniProt Q9HCP0)
[6] = target: EPHA1 (Homo sapiens, UniProt P21709)
[7] = target: EPHB4 (Homo sapiens, UniProt P54760)
[8] = target: FGFR4 (Homo sapiens, UniProt P22455)
[9] = target: FLT3 (D835Y) (Homo sapiens, UniProt P36888, D835Y)
[10] = target: FLT3 (R834Q) (Homo sapiens, UniProt P36888, R834Q)
[11] = target: HPK1 (Homo sapiens, UniProt Q92918)
[12] = target: HUNK (Homo sapiens, UniProt P57058)
[13] = target: KIT (A829P) (Homo sapiens, UniProt P10721, A829P)
[14] = target: KIT (V559D, T670I) (Homo sapiens, UniProt P10721, T670I/V559D)
[15] = target: LRRK2 (Homo sapiens, UniProt Q5S007)
[16] = target: LTK (Homo sapiens, UniProt P29376)
[17] = target: MAK (Homo sapiens, UniProt P20794)
[18] = target: MAP4K2 (Homo sapiens, UniProt Q12851)
[19] = target: T1, MLK3 (Homo sapiens, UniProt Q16584)
T1 construct: T7 phage fusion (stated for most kinases of the panel only); made in house; host or cells: T7 phage in E. coli (BL21-derived) or HEK-293 cells

[20] = target: T2, MYLK (Homo sapiens, UniProt Q15746)
T2 construct: T7 phage fusion (said for most assays); made in house

[21] = target: T3, NDR1 (Homo sapiens, UniProt Q15208)
T3 construct: T7 phage fusion (said for most assays); made in house

[22] = target: T4, NDR2 (Homo sapiens, UniProt Q9Y2H1)
T4 construct: T7 phage fusion (said for most assays); made in house

[23] = target: T5, NEK10 (Homo sapiens, UniProt Q6ZWH5)
T5 construct: T7 phage fusion (said for most assays); made in house

[24] = target: T6, NEK4 (Homo sapiens, UniProt P51957)
T6 construct: T7 phage fusion (said for most assays); made in house

[25] = target: p38-delta (Homo sapiens, UniProt O15264)
[26] = target: PIK3CG (Homo sapiens, UniProt P48736)
[27] = target: PIM2 (Homo sapiens, UniProt Q9P1W9)
[28] = target: PLK3 (Homo sapiens, UniProt Q9H4B4)
[29] = target: PRKD1 (Homo sapiens, UniProt Q15139)
[30] = target: RET (M918T) (Homo sapiens, UniProt P07949, M918T)
[31] = target: RET (V804M) (Homo sapiens, UniProt P07949, V804M)
[32] = target: RIPK2 (Homo sapiens, UniProt O43353)
[33] = target: ROS1 (Homo sapiens, UniProt P08922)
[34] = target: SIK2 (Homo sapiens, UniProt Q9H0K1)
[35] = target: SNRK (Homo sapiens, UniProt Q9NRH2)
[36] = target: STK16 (Homo sapiens, UniProt O75716)
[37] = target: STK36 (Homo sapiens, UniProt Q9NRP7)
[38] = target: TRKC (Homo sapiens, UniProt Q16288)
[39] = target: VRK2 (Homo sapiens, UniProt Q86Y07)

Sequence of LTK (P29376 17-864): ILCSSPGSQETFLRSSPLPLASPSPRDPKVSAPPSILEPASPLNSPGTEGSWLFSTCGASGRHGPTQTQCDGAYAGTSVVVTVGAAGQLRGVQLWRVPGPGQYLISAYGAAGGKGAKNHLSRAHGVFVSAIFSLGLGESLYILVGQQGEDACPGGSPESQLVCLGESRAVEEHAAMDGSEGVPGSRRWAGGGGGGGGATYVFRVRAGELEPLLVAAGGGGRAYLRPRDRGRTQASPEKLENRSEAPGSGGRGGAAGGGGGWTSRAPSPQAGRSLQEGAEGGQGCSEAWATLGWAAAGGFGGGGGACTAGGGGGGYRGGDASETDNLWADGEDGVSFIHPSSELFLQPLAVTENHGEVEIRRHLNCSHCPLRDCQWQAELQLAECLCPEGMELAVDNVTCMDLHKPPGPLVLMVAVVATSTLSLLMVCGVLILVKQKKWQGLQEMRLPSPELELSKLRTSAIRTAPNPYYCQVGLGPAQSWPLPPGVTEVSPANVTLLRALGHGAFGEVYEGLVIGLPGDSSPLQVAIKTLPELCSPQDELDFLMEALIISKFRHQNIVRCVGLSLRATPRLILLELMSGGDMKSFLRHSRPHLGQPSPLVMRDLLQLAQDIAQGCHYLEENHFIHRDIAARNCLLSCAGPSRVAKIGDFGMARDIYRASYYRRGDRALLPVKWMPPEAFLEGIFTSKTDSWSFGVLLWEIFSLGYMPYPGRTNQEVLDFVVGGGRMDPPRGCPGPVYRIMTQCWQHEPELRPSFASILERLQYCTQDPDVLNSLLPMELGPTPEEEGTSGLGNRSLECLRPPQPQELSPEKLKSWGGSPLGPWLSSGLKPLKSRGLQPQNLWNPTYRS
Sequence of RET (M918T) (P07949 29-1114 M918T): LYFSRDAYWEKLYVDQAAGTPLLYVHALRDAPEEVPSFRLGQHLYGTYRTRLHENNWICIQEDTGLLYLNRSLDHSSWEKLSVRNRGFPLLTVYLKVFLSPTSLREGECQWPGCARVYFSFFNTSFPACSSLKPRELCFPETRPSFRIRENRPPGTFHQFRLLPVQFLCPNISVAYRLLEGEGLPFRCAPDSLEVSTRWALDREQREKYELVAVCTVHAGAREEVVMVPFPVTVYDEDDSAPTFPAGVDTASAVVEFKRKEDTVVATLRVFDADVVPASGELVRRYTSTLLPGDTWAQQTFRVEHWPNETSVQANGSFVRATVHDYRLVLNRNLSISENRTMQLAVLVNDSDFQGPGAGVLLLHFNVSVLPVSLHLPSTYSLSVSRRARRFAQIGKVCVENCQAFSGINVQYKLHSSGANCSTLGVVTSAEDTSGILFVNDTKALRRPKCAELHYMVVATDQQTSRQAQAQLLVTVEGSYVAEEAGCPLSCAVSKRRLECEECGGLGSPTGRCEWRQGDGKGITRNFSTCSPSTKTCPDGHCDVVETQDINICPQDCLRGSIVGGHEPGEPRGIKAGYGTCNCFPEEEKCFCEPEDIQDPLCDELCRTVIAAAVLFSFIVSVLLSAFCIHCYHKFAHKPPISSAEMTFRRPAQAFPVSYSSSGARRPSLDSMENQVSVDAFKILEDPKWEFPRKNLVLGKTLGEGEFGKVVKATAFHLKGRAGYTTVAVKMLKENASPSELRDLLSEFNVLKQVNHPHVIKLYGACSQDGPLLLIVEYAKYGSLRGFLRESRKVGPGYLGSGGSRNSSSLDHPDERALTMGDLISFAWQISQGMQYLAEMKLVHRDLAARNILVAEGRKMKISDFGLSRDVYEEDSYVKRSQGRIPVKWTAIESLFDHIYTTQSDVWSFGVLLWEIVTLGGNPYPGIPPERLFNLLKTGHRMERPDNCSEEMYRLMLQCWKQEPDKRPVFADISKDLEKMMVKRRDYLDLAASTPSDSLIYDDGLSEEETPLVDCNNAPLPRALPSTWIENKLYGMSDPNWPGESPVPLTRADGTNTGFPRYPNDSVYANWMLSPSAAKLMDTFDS
Sequence of TRKC (Q16288 32-839): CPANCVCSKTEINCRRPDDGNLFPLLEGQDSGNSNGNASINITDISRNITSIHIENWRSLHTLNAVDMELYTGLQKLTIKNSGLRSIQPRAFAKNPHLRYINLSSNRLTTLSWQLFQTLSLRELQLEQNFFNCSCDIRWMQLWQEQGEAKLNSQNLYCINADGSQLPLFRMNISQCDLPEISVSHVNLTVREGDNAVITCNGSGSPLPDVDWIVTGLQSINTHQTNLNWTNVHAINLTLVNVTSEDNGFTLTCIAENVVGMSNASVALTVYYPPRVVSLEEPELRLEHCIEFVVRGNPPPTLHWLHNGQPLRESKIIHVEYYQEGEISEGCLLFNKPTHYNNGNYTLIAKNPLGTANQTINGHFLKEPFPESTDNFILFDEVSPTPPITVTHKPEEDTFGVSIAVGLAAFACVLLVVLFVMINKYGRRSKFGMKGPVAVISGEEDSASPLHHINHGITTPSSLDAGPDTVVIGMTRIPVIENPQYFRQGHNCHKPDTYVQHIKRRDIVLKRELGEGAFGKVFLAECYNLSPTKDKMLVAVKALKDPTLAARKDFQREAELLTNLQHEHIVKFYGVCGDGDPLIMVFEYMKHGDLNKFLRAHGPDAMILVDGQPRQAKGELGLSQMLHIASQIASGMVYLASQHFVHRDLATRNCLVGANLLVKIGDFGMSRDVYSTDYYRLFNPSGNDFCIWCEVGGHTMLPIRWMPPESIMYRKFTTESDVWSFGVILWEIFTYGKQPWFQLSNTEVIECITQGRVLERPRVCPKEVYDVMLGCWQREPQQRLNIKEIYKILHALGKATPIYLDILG
Sequence of KIT (A829P) (P10721 26-976 A829P): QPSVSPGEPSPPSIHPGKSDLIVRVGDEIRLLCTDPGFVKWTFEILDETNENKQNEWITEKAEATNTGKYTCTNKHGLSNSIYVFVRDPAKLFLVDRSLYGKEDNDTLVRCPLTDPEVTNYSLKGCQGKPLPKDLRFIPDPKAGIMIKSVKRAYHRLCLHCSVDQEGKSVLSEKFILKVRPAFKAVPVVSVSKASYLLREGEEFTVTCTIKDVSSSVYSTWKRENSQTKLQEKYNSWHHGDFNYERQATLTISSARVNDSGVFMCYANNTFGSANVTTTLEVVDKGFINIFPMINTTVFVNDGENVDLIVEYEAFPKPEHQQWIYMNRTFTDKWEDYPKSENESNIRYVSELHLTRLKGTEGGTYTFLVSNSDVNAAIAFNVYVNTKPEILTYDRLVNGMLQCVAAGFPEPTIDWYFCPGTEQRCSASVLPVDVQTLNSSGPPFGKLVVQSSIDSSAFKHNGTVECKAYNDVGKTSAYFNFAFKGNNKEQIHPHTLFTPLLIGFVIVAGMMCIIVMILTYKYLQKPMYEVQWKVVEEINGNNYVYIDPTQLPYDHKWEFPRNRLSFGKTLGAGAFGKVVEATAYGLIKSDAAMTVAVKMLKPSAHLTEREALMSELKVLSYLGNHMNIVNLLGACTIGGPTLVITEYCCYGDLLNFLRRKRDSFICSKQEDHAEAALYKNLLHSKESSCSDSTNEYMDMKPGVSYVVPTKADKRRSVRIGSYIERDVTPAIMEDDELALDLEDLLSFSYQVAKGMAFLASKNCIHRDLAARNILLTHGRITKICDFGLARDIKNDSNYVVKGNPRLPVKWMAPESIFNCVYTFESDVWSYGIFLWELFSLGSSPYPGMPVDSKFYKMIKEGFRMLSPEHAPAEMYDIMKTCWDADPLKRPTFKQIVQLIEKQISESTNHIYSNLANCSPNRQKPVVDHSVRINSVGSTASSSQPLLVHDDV
T3 sequence (Q15208 whole entry, the tested form may be a part): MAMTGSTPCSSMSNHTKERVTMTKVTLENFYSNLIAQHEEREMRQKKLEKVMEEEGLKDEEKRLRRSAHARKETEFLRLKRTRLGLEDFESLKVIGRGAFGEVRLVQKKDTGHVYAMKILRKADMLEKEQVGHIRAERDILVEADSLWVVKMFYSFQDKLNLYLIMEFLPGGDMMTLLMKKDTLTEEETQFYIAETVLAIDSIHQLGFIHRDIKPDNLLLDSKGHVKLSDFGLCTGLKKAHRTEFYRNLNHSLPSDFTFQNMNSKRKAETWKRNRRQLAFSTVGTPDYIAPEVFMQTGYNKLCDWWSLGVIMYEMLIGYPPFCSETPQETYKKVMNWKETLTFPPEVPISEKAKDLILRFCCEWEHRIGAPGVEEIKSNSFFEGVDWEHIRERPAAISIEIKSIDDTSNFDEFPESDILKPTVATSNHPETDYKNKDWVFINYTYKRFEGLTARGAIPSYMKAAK
Sequence of MAK (P20794 whole entry): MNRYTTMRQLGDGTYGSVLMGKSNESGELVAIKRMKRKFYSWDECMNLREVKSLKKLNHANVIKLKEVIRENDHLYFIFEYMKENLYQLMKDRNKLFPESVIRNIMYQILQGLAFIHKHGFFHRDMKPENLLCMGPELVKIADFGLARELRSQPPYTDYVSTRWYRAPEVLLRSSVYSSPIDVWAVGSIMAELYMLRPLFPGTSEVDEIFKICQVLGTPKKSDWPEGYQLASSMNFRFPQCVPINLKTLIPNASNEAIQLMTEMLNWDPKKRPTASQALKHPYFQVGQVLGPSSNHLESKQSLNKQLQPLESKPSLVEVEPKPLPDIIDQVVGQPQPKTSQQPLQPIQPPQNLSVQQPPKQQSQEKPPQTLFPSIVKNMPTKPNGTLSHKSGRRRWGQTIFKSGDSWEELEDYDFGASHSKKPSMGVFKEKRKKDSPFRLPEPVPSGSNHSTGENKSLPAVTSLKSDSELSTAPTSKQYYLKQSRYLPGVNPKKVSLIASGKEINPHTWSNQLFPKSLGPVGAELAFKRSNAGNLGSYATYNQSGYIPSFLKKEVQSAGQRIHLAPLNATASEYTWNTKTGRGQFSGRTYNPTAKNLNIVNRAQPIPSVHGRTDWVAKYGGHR
Sequence of RET (V804M) (P07949 29-1114 V804M): as the sequence (P07949 29-1114 M918T) above, with V776M, T890M counted along it
Sequence of KIT (V559D, T670I) (P10721 26-976 V559D/T670I): as the sequence (P10721 26-976 A829P) above, with V534D, T645I, P804A counted along it

Compound Cc1cc(Oc2cc(NC(=O)C3CC3)ncn2)ccc1NC(=O)Nc1ccc(Cl)c(C(F)(F)F)c1 [CBT-102] has a remaining activity at 1 µM [1] of 94%, a remaining activity at 1 µM [2] of 93% and a remaining activity at 1 µM [3] of 100%. The remaining activity at 1 µM [4] was 90%, the remaining activity at 1 µM [5] was 100% and the remaining activity at 1 µM [6] was 45%. It also gave a remaining activity at 1 µM [7] of 18%, a remaining activity at 1 µM [8] of 92% and a remaining activity at 1 µM [9] of 61%. For the same compound, the remaining activity at 1 µM [10] was 97%, the remaining activity at 1 µM [11] was 23% and the remaining activity at 1 µM [12] was 68%. It also gave a remaining activity at 1 µM [13] of 16%, a remaining activity at 1 µM [14] of 0.3% and a remaining activity at 1 µM [15] of 73%. It also gave a remaining activity at 1 µM [16] of 100%, a remaining activity at 1 µM [17] of 62% and a remaining activity at 1 µM [18] of 91%. For the same compound, the remaining activity at 1 µM [19] was 92%, the remaining activity at 1 µM [20] was 98% and the remaining activity at 1 µM [21] was 94%. It also gave a remaining activity at 1 µM [22] of 100%, a remaining activity at 1 µM [23] of 77% and a remaining activity at 1 µM [24] of 93%. The remaining activity at 1 µM [25] was 8.6%, the remaining activity at 1 µM [26] was 100% and the remaining activity at 1 µM [27] was 100%. The remaining activity at 1 µM [28] was 97%, the remaining activity at 1 µM [29] was 100% and the remaining activity at 1 µM [30] was 0.1%. It also gave a remaining activity at 1 µM [31] of 3.3%, a remaining activity at 1 µM [32] of 28% and a remaining activity at 1 µM [33] of 63%. The remaining activity at 1 µM [34] was 100%, the remaining activity at 1 µM [35] was 100% and the remaining activity at 1 µM [36] was 100%. It also gave a remaining activity at 1 µM [37] of 2.5%, a remaining activity at 1 µM [38] of 37% and a remaining activity at 1 µM [39] of 100%.
